The target of the experiment is T1, delF508-CFTR (Homo sapiens, UniProt P13569, DEL508-508).
T1 construct: expressed in transfected cells
The experiment in a line: Measurement of delF508-CFTR-HRP surface expression in CFBE41o- cells. Type of experiment: cell-based. Conditions: for EC50: HRP-tagged delF508-CFTR in CFBE41o- cells, 24 h with compound, luminescence, 10-point curve, top 10 μM; for Emax: efficacy relative to reference compound 3-(6-(1-(2,2-difluorobenzo[d][1,3]dioxol-5-yl)cyclopropane-1-carboxamido)-3-methylpyridin-2-yl)benzoic acid, CFBE41o- cells, 24 h, read-out: DelF508-CFTR-HRP Amax %. An excerpt:
Measurement of delF508-CFTR-HRP Surface Expression in CFBE41o-Cells
This assay quantifies the cell surface expressions of the mutant CFTR channel using an extracellular HRP tag.
A cellular assay was developed to measure surface expression of horseradish peroxidase (HRP) tagged delF508-CFTR in the human bronchial epithelial immortalized CFBE41o-cell line (Phuan, P. W., et al, (2014) Molecular Pharmacology 86:42-51). Specifically, the HRP sequence was inserted into the fourth extracellular loop of delF508-CFTR and stably expressed in CFBE41o-cells. Cells were seeded in 384 well plate at a density of 5000 cells/well and incubated at 37° C. for 12 to 24 hours in medium (Gibco MEM #11095, 10% FBS, 10 mM HEPES, […], 200 μg/mL G418, 3 μg/mL Puromycin). The delF508-CFTR-HRP expression was induced with 500 ng/mL doxycycline (Sigma D-9891, dissolved in H2O and sterile filtered) in medium and the cells were incubated at 37° C. for 48 h. Old medium was removed and fresh medium was added containing 500 ng/mL doxycycline and unknown test compound at required test concentration in DMSO, not exceeding 0.5% final DMSO concentration. The highest concentration tested was 10 μM with a 10-point concentration response curve using a 3-fold dilution. After addition of compounds, the cells were incubated for 24 h at 37° C. On the final day, cells were washed four times in PBS containing 1 mM MgCl2 and 0.1 mM CaCl2. HRP-Substrate (SuperSignal ELISA Pico, Fisher #37069) 20 μl/well was added and the luminescence signal was determined (Viewlux, Perkin Elmer). Light was emitted upon addition of exogenous HRP-Substrate only when delF508-CFTR-HRP reached the cell surface and the HRP tag was accessible to the HRP-Substrate (note: HRP-Substrate cannot cross the lipid bilayer to reach delF508-CFTR-HRP misfolded within the cell).
The median activity for the lowest concentration of the compounds on each assay plate was calculated and this value was used to normalize the signal for each well on the respective plate. Three replicates at each concentrations for every compound were run to determine one EC50. The median value was determined and used to calculate compound activities as described below. Effective half maximal values (EC50) were calculated for each compound by performing logistic regression on measured dose-response data points using the equation: […]
where “Y” is the observed activity, “Bottom” is the lowest observed value, “Top” is the highest observed value, and the “Hill coefficient” gives the largest absolute value of the slope. The curve fitting is carried out by a curve fitting program implemented at GNF using Matlab (Mathworks).
The dose response curves also were used to calculate Fold Change (FC) using the equation: […]
Compound efficacy relative to the reference compound 3-(6-(1-(2,2-difluorobenzo[d][1,3]dioxol-5-yl)cyclopropane-1-carboxamido)-3-methylpyridin-2-yl)benzoic acid was determined using the following formula: […]

Our source for the EC50 and Emax values is patent US20220127247A1, “N-(PYRIDIN-2-YL)PYRIDINE-SULFONAMIDE DERIVATIVES AND THEIR USE IN THE TREATMENT OF DISEASE” (NOVARTIS AG, priority 2019, published 2022).

As usually defined, the EC50 is the concentration that produces a half-maximal response.

T1 sequence (P13569 with tags, fused parts or gaps DEL508-508): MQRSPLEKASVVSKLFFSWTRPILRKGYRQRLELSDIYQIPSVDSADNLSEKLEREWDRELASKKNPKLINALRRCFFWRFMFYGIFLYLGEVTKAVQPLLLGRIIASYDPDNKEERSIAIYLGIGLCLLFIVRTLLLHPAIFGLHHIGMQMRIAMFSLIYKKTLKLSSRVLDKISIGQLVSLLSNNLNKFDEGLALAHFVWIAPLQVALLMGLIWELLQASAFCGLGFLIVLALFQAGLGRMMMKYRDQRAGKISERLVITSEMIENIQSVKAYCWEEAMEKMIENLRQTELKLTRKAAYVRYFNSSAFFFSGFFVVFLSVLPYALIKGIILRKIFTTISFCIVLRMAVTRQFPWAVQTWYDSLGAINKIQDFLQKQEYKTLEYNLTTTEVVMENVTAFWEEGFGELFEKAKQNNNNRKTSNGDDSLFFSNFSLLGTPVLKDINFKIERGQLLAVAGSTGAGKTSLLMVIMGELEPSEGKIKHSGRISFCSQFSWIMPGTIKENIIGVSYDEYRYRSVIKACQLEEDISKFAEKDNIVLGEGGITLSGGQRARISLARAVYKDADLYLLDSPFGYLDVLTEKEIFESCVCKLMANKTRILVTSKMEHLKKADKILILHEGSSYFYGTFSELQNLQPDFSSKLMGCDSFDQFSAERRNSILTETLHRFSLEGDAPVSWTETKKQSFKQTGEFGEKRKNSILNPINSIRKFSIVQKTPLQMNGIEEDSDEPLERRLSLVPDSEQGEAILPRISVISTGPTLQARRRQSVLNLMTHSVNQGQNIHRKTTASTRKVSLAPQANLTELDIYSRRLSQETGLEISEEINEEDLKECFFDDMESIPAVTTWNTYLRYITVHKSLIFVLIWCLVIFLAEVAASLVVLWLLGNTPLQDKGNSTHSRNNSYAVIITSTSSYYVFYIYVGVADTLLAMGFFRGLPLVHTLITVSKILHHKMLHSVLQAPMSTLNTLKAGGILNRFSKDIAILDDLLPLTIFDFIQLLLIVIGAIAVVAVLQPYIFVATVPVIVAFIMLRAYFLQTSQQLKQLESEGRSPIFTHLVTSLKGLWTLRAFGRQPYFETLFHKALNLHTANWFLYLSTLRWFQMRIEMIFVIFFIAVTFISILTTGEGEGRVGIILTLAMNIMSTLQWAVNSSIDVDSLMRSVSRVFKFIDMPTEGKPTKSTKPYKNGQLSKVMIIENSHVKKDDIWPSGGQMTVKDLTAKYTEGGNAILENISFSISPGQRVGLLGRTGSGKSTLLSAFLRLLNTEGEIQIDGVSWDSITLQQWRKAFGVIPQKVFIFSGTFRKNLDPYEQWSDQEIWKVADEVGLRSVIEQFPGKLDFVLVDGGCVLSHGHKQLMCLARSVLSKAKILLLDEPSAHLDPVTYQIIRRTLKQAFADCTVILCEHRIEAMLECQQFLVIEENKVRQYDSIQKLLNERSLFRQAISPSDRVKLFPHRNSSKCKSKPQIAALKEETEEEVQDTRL

As to `O=C(O)CCNc1cccc(S(=O)(=O)Nc2ccc(C(F)(F)F)c(-c3ccccc3C3CC3)n2)n1` [Compound 39, 3-((6-(N-(6-(2-cyclopropylphenyl)-5-(trifluoromethyl)pyridin-2-yl)sulfamoyl)pyridin-2-yl)amino)propanoic Acid], the EC50 stood at 3260 nM and the Emax was 257%.
As to `O=C(O)CCCNc1cccc(S(=O)(=O)Nc2ccc(C(F)(F)F)c(-c3ccccc3C3CC3)n2)n1` [Compound 40, 4-((6-(N-(6-(2-cyclopropylphenyl)-5-(trifluoromethyl)pyridin-2-yl)sulfamoyl)pyridin-2-yl)amino)butanoic Acid], the EC50 is 2530 nM and the Emax was found to be 314%.
Take `CN(CCCC(=O)O)c1cccc(S(=O)(=O)Nc2ccc(C(F)(F)F)c(-c3ccccc3C3CC3)n2)n1` [Compound 41, 4-((6-(N-(6-(2-cyclopropylphenyl)-5-(trifluoromethyl)pyridin-2-yl)sulfamoyl)pyridin-2-yl)(methyl)amino)butanoic Acid]: the EC50 worked out at 1480 nM.
In the case of `O=C(O)CCCCNc1cccc(S(=O)(=O)Nc2ccc(C(F)(F)F)c(-c3ccccc3C3CC3)n2)n1` [Compound 42, 5-((6-(N-(6-(2-cyclopropylphenyl)-5-(trifluoromethyl)pyridin-2-yl)sulfamoyl)pyridin-2-yl)amino)pentanoic Acid], the half-maximal effective concentration (EC50) was 2670 nM and the Emax came to 507%.
Turning to `Cc1ccccc1-c1nc(NS(=O)(=O)c2cccc(NCCCCC(=O)O)n2)ccc1C(F)(F)F` [Compound 43, 5-((6-(N-(6-(o-tolyl)-5-(trifluoromethyl)pyridin-2-yl)sulfamoyl)pyridin-2-yl)amino)pentanoic Acid], the EC50 was 2370 nM and the Emax amounted to 407%.
Consider `CC(C)c1ccccc1-c1nc(NS(=O)(=O)c2cccc(N(C)CCC(=O)O)n2)ccc1C(F)(F)F` [Compound 44, 3-((6-(N-(6-(2-isopropylphenyl)-5-(trifluoromethyl)pyridin-2-yl)sulfamoyl)pyridin-2-yl)(methyl)amino)propanoic Acid], for which the EC50 was 1520 nM.
In the case of `Cc1ccc(F)cc1-c1nc(NS(=O)(=O)c2cccc(N(C)CC(C)(C)C(=O)O)n2)ccc1C(F)(F)F` [Compound 45, 3-((6-(N-(6-(5-fluoro-2-methylphenyl)-5-(trifluoromethyl)pyridin-2-yl)sulfamoyl)pyridin-2-yl)(methyl)amino)-2,2-dimethylpropanoic Acid], the EC50 turned out to be 1570 nM and the Emax was found to be 598%.
With `Cc1ccccc1-c1nc(NS(=O)(=O)c2cccc(N(C)CC(C)(C)C(=O)O)n2)ccc1C(F)(F)F` [Compound 46, 2,2-dimethyl-3-(methyl(6-(N-(6-(o-tolyl)-5-(trifluoromethyl)pyridin-2-yl)sulfamoyl)pyridin-2-yl)amino)propanoic Acid], the half-maximal effective concentration (EC50) is 1810 nM and the Emax stood at 493%.
For the compound `Cc1c(F)cccc1-c1nc(NS(=O)(=O)c2cccc(N(C)CC(C)(C)C(=O)O)n2)ccc1C(F)(F)F` [Compound 47, 3-((6-(N-(6-(3-fluoro-2-methylphenyl)-5-(trifluoromethyl)pyridin-2-yl)sulfamoyl)pyridin-2-yl)(methyl)amino)-2,2-dimethylpropanoic Acid], the EC50 was 1820 nM and the Emax came to 496%.
Consider `Cc1ccc(F)cc1-c1nc(NS(=O)(=O)c2cccc(N(C)CCC(=O)O)n2)ccc1C(F)(F)F` [Compound 48, 3-((6-(N-(6-(5-fluoro-2-methylphenyl)-5-(trifluoromethyl)pyridin-2-yl)sulfamoyl)pyridin-2-yl)(methyl)amino)propanoic Acid], for which the EC50 stood at 2040 nM and the Emax stood at 513%.
As to `Cc1c(F)cccc1-c1nc(NS(=O)(=O)c2cccc(N(C)CCC(=O)O)n2)ccc1C(F)(F)F` [Compound 49, 3-((6-(N-(6-(3-fluoro-2-methylphenyl)-5-(trifluoromethyl)pyridin-2-yl)sulfamoyl)pyridin-2-yl)(methyl)amino)propanoic Acid], the EC50 is 2030 nM and the Emax was 557%.
The corresponding values for `Cc1c(F)cccc1-c1nc(NS(=O)(=O)c2cccc(N3CCCC(C)(CC(=O)O)C3)n2)ccc1C(F)(F)F` (stereo not shown) [Compound 50, 2-(1-(6-(N-(6-(3-fluoro-2-methylphenyl)-5-(trifluoromethyl)pyridin-2-yl)sulfamoyl)pyridin-2-yl)-3-methylpiperidin-3-yl)acetic Acid] are 2100 nM and 867%.
Turning to `Cc1ccccc1-c1nc(NS(=O)(=O)c2cccc(N3CCCC(C)(CC(=O)O)C3)n2)ccc1C(F)(F)F` (stereo not shown) [Compound 51, 2-(3-methyl-1-(6-(N-(6-(o-tolyl)-5-(trifluoromethyl)pyridin-2-yl)sulfamoyl)pyridin-2-yl)piperidin-3-yl)acetic Acid], the EC50 turned out to be 1600 nM.
With `Cc1ccc(F)cc1-c1nc(NS(=O)(=O)c2cccc(N3CCCC(C)(CC(=O)O)C3)n2)ccc1C(F)(F)F` (stereo not shown) [Compound 52, 2-(1-(6-(N-(6-(5-fluoro-2-methylphenyl)-5-(trifluoromethyl)pyridin-2-yl)sulfamoyl)pyridin-2-yl)-3-methylpiperidin-3-yl)acetic Acid], the EC50 turned out to be 1490 nM.
On to `Cc1ccccc1-c1nc(NS(=O)(=O)c2cccc(N3CCC(C)(CC(=O)O)C3)n2)ccc1C(F)(F)F` (stereo not shown) [Compound 53, 2-(3-methyl-1-(6-(N-(6-(o-tolyl)-5-(trifluoromethyl)pyridin-2-yl)sulfamoyl)pyridin-2-yl)pyrrolidin-3-yl)acetic Acid], for which the EC50 was 1780 nM and the Emax was determined as 411%.
Regarding `Cc1c(F)cccc1-c1nc(NS(=O)(=O)c2cccc(N3CCC(C)(CC(=O)O)C3)n2)ccc1C(F)(F)F` (stereo not shown) [Compound 54, 2-(1-(6-(N-(6-(3-fluoro-2-methylphenyl)-5-(trifluoromethyl)pyridin-2-yl)sulfamoyl)pyridin-2-yl)-3-methylpyrrolidin-3-yl)acetic Acid], the EC50 is 2000 nM and the Emax worked out at 369%.
Consider `Cc1ccc(F)cc1-c1nc(NS(=O)(=O)c2cccc(N3CCC(C)(CC(=O)O)C3)n2)ccc1C(F)(F)F` (stereo not shown) [Compound 55, 2-(1-(6-(N-(6-(5-fluoro-2-methylphenyl)-5-(trifluoromethyl)pyridin-2-yl)sulfamoyl)pyridin-2-yl)-3-methylpyrrolidin-3-yl)acetic Acid], for which the EC50 turned out to be 1680 nM and the Emax is 457%.
Regarding `C=Cc1ccccc1-c1nc(NS(=O)(=O)c2cccc(N3CCC[C@H](CC(=O)O)C3)n2)ccc1C(F)(F)F` [Compound 57, (R)-2-(1-(6-(N-(5-(trifluoromethyl)-6-(2-vinylphenyl)pyridin-2-yl)sulfamoyl)pyridin-2-yl)piperidin-3-yl)acetic Acid], the EC50 came to 1970 nM.
`C=Cc1ccccc1-c1nc(NS(=O)(=O)c2cccc(N3CCC[C@@H](CC(=O)O)C3)n2)ccc1C(F)(F)F` [Compound 58, (S)-2-(1-(6-(N-(5-(trifluoromethyl)-6-(2-vinylphenyl)pyridin-2-yl)sulfamoyl)pyridin-2-yl)piperidin-3-yl)acetic Acid]: the EC50 is 2370 nM.
`Cc1ccccc1-c1nc(NS(=O)(=O)c2cccc(N3CCC[C@H](CC(=O)O)C3)n2)ccc1C(F)(F)F` [Compound 59, (R)-2-(1-(6-(N-(6-(o-tolyl)-5-(trifluoromethyl)pyridin-2-yl)sulfamoyl)pyridin-2-yl)piperidin-3-yl)acetic Acid]: the EC50 turned out to be 2070 nM and the Emax stood at 920%.
The corresponding values for `CCN(CCC(=O)O)c1cccc(S(=O)(=O)Nc2ccc(C(F)(F)F)c(-c3cc(F)ccc3C)n2)n1` [Compound 61, 3-(ethyl(6-(N-(6-(5-fluoro-2-methylphenyl)-5-(trifluoromethyl)pyridin-2-yl)sulfamoyl)pyridin-2-yl)amino)propanoic Acid] are 3560 nM and 736%.
As for `Cc1ccc(F)cc1-c1nc(NS(=O)(=O)c2cccc(N(CCC(=O)O)CC3CC3)n2)ccc1C(F)(F)F` [Compound 69, 3-((cyclopropylmethyl)(6-(N-(6-(5-fluoro-2-methylphenyl)-5-(trifluoromethyl)pyridin-2-yl)sulfamoyl)pyridin-2-yl)amino)propanoic Acid], the EC50 is 1760 nM.
